From PubChem BioAssay AID2060615 (Molecular Pharmacology Branch, DTP, NCI, 2025)

Test system: 496974-208-R-J2-PDC complex spheroids, growth % test/control
Assay: Anticancer human tumor 496974-208-R-J2-PDC patient-derived pancreatic carcinoma cell line growth inhibition [CLK]
Details: for IC50: curve of first compound; for viability, T/C: stronger effect = lower value
Summary of the method: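 Multi-cell-type spheroids combined patient-derived tumor cells with HUVEC endothelial cells and human mesenchymal stem cells. Paired agents were dosed in half-log steps down from about clinical Cmax, or from 10 microM where Cmax was unknown.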
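Also: spheroids exposed to the drugs for 7 days before readout.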
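For viability, T/C in this document: 100% = DMSO vehicle control wells.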

NC(=O)C(=Cn1cnc(-c2cc(C(F)(F)F)cc(C(F)(F)F)c2)n1)c1cncnc1 + CN1CCN(c2cc(C(=O)Nc3cc4cc(-c5cnn(C)c5)ccc4cn3)ccn2)CC1
IC50 (second compound 0.0316 µM): 80.4 nM | IC50 (second compound 0.1 µM): 42 nM | IC50 (second compound 0.316 µM): < 9.49 nM | IC50 (second compound 1 µM): < 9.49 nM | IC50 (second compound 3.16 µM): < 9.49 nM | IC50 (second compound 10 µM): < 9.49 nM | viability, T/C (second compound 0.0316 µM, first compound 0.00949 µM): 90.6% | viability, T/C (second compound 0.0316 µM, first compound 0.03 µM): 67.2% | viability, T/C (second compound 0.0316 µM, first compound 0.0949 µM): 52.1% | viability, T/C (second compound 0.0316 µM, first compound 0.3 µM): 21.3% | viability, T/C (second compound 0.0316 µM, first compound 0.949 µM): 16.9% | viability, T/C (second compound 0.0316 µM, first compound 3 µM): 11.8% | viability, T/C (second compound 0.1 µM, first compound 0.00949 µM): 61.6% | viability, T/C (second compound 0.1 µM, first compound 0.03 µM): 56.5% | viability, T/C (second compound 0.1 µM, first compound 0.0949 µM): 35.2% | viability, T/C (second compound 0.1 µM, first compound 0.3 µM): 12.4% | viability, T/C (second compound 0.1 µM, first compound 0.949 µM): 7.44% | viability, T/C (second compound 0.1 µM, first compound 3 µM): 2.92% | viability, T/C (second compound 0.316 µM, first compound 0.00949 µM): 2.46% | viability, T/C (second compound 0.316 µM, first compound 0.03 µM): 1.91% | viability, T/C (second compound 0.316 µM, first compound 0.0949 µM): 3.26% | viability, T/C (second compound 0.316 µM, first compound 0.3 µM): 0.41% | viability, T/C (second compound 0.316 µM, first compound 0.949 µM): 0.31% | viability, T/C (second compound 0.316 µM, first compound 3 µM): 0.19% | viability, T/C (second compound 1 µM, first compound 0.00949 µM): 0.39% | viability, T/C (second compound 1 µM, first compound 0.03 µM): 0.4% | viability, T/C (second compound 1 µM, first compound 0.0949 µM): 0.64% | viability, T/C (second compound 1 µM, first compound 0.3 µM): 0.44% | viability, T/C (second compound 1 µM, first compound 0.949 µM): 2.17% | viability, T/C (second compound 1 µM, first compound 3 µM): 0.11% | viability, T/C (second compound 3.16 µM, first compound 0.00949 µM): 0.34% | viability, T/C (second compound 3.16 µM, first compound 0.03 µM): 0.4% | viability, T/C (second compound 3.16 µM, first compound 0.0949 µM): 0.41% | viability, T/C (second compound 3.16 µM, first compound 0.3 µM): 0.37% | viability, T/C (second compound 3.16 µM, first compound 0.949 µM): 0.26% | viability, T/C (second compound 3.16 µM, first compound 3 µM): 0.13% | viability, T/C (second compound 10 µM, first compound 0.00949 µM): 0.25% | viability, T/C (second compound 10 µM, first compound 0.03 µM): 0.23% | viability, T/C (second compound 10 µM, first compound 0.0949 µM): 1.86% | viability, T/C (second compound 10 µM, first compound 0.3 µM): 0.31% | viability, T/C (second compound 10 µM, first compound 0.949 µM): 0.24% | viability, T/C (second compound 10 µM, first compound 3 µM): 0.69%

Nc1ccccc1NC(=O)c1ccc(CNC(=O)OCc2cccnc2)cc1 + CN1CCN(c2cc(C(=O)Nc3cc4cc(-c5cnn(C)c5)ccc4cn3)ccn2)CC1
IC50 (second compound 0.0316 µM): 4300 nM | IC50 (second compound 0.1 µM): 4370 nM | IC50 (second compound 0.316 µM): < 31.6 nM | IC50 (second compound 1 µM): < 31.6 nM | IC50 (second compound 3.16 µM): < 31.6 nM | IC50 (second compound 10 µM): < 31.6 nM | viability, T/C (second compound 0.0316 µM, first compound 0.0316 µM): 105% | viability, T/C (second compound 0.0316 µM, first compound 0.1 µM): 101% | viability, T/C (second compound 0.0316 µM, first compound 0.316 µM): 94.3% | viability, T/C (second compound 0.0316 µM, first compound 1 µM): 81.4% | viability, T/C (second compound 0.0316 µM, first compound 3.16 µM): 73.2% | viability, T/C (second compound 0.0316 µM, first compound 10 µM): 0.89% | viability, T/C (second compound 0.1 µM, first compound 0.0316 µM): 77.5% | viability, T/C (second compound 0.1 µM, first compound 0.1 µM): 78.9% | viability, T/C (second compound 0.1 µM, first compound 0.316 µM): 80.3% | viability, T/C (second compound 0.1 µM, first compound 1 µM): 69.2% | viability, T/C (second compound 0.1 µM, first compound 3.16 µM): 69.4% | viability, T/C (second compound 0.1 µM, first compound 10 µM): 0.6% | viability, T/C (second compound 0.316 µM, first compound 0.0316 µM): 6.28% | viability, T/C (second compound 0.316 µM, first compound 0.1 µM): 4.96% | viability, T/C (second compound 0.316 µM, first compound 0.316 µM): 4.64% | viability, T/C (second compound 0.316 µM, first compound 1 µM): 3.64% | viability, T/C (second compound 0.316 µM, first compound 3.16 µM): 2.12% | viability, T/C (second compound 0.316 µM, first compound 10 µM): 0.13% | viability, T/C (second compound 1 µM, first compound 0.0316 µM): 0.53% | viability, T/C (second compound 1 µM, first compound 0.1 µM): 0.32% | viability, T/C (second compound 1 µM, first compound 0.316 µM): 0.35% | viability, T/C (second compound 1 µM, first compound 1 µM): 0.18% | viability, T/C (second compound 1 µM, first compound 3.16 µM): 0.21% | viability, T/C (second compound 1 µM, first compound 10 µM): 0.21% | viability, T/C (second compound 3.16 µM, first compound 0.0316 µM): 0.5% | viability, T/C (second compound 3.16 µM, first compound 0.1 µM): 0.4% | viability, T/C (second compound 3.16 µM, first compound 0.316 µM): 0.39% | viability, T/C (second compound 3.16 µM, first compound 1 µM): 0.21% | viability, T/C (second compound 3.16 µM, first compound 3.16 µM): 0.2% | viability, T/C (second compound 3.16 µM, first compound 10 µM): 1.32% | viability, T/C (second compound 10 µM, first compound 0.0316 µM): 0.22% | viability, T/C (second compound 10 µM, first compound 0.1 µM): 0.23% | viability, T/C (second compound 10 µM, first compound 0.316 µM): 0.27% | viability, T/C (second compound 10 µM, first compound 1 µM): 0.22% | viability, T/C (second compound 10 µM, first compound 3.16 µM): 0.24% | viability, T/C (second compound 10 µM, first compound 10 µM): 1.53%
